Where two headings read alike, the source gives them in different places.
What was measured:
HCT 116 cell line = experiment: Cell inhibition assay method A (WST-1, 120 hrs); assay type: cell-based; settings: Homo sapiens, HCT-116, method A, read-out: Inhibitor Activity vs HCT 116 cell line (method A)
Procedure: Cell inhibition assays were carried out using either method A or method B
Cells were seeded in 96W tissue culture plates (1 well=30 mm^2) at a density of […] per well in 50 μL of the appropriate culture medium (see below). 24 hrs later […] of the compound prepared in the same medium was added as 4 fold dilutions to give final concentrations in the range 0.15 nM-2500 nM (n=6 for each concentration). The plates were then incubated at 37° C., 5% CO2 for 120 hrs. Cell proliferation was assessed using WST-1 (a metabolic indicator dye, Roche Cat no. 1 644 807) according to the manufacturers instructions. The results were calculated as percentage of vehicle response and IC50 values represent the concentration of compound that inhibited the vehicle response by 50%.
HCT-116 culture medium —Dulbeccos MEM (Sigma D6546) plus 10% heat inactivated fetal calf serum (Hyclone SH30071 Thermo Fischer Scientific) containing 2 mM Glutamine (Sigma cat no G-7513) and 50 U/ml Penicillin and Streptomycin Sulphate (Sigma Cat no P-0781).

PLK1 = molecular target: T1, PLK1 (Homo sapiens, UniProt P53350); experiment: PLK1 enzyme assay (Z'-LYTE, Invitrogen); assay type: biochemical
T1 construct: purchased Invitrogen (Paisley, UK)
Procedure: The ability of compounds to inhibit PLK-1 kinase activity was measured in an assay performed by Invitrogen (Paisley, UK). The Z′-LYTE™ biochemical assay employs a fluorescence-based, coupled-enzyme format and is based on the differential sensitivity of phosphorylated and non-phosphorylated peptides to proteolytic cleavage. The peptide substrate is labelled with two fluorophores—one at each end—that make up a FRET pair. In the primary reaction, the kinase transfers the gamma-phosphate of ATP to a single serine or threonine residue in a synthetic FRET-peptide. In the secondary reaction, a site-specific protease recognizes and cleaves non-phosphorylated FRET-peptides. Phosphorylation of FRET-peptides suppresses cleavage by the Development Reagent. Cleavage disrupts FRET between the donor (i.e., coumarin) and acceptor (i.e., fluorescein) fluorophores on the FRET-peptide, whereas uncleaved, phosphorylated FRET-peptides maintain FRET. A […] method, which calculates the ratio (the Emission Ratio) of donor emission to acceptor emission after excitation of the donor fluorophore at 400 nm, is used to quantitate reaction progress.
The assay is performed at an ATP concentration at, or close to, the Km. After the 60 minute Kinase Reaction incubation at RT, 5 μL of a 1:8 dilution of Development Reagent is added. The assay plate is incubated for a further 60 minutes at RT and read on a fluorescence plate reader.
Duplicate data points are generated from a ⅓ log dilution series of a stock solution of test compound in DMSO. Nine dilutions steps are made from a top concentration of 10 μM, and a ‘no compound’ blank is included. Data is collected and analysed using XLfit software from IDBS.

[1] = ATP at or close to Km, read-out: Inhibitor Activity vs PLK1

T1 sequence (P53350 whole entry): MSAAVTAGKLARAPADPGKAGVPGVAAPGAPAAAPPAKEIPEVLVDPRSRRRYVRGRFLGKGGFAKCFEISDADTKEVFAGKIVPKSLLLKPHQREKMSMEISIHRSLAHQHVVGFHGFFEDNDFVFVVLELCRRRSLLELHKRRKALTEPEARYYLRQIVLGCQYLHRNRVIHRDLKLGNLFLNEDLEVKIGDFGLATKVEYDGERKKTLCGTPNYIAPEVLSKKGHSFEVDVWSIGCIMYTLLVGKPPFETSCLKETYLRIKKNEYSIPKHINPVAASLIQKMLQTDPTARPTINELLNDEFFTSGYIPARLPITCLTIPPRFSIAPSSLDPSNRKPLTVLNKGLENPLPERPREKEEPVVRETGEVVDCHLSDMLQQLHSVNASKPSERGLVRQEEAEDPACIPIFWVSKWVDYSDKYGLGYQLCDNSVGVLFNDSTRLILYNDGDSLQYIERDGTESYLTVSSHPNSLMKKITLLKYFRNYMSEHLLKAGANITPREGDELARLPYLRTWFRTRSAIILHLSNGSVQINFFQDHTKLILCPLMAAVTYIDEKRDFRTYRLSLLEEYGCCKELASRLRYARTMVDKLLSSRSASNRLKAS

SMILES | IC50 (HCT 116 cell line) | IC50 (PLK1; [1]) | IC50 (PLK1; acid of the ester, read-out: Inhibition of PLK (IC50, nM) acid)
CC[C@@H]1C(=O)N(C)c2cnc(Nc3ccc(C[C@H](N)C(=O)OC4CCCC4)cc3)nc2N1C1CCCC1 [Example 1, Cyclopentyl 4-{[(7R)-8-cyclopentyl-7-ethyl-5-methyl-6-oxo-5,6,7,8-tetrahydropteridin-2-yl]amino}-L-phenylalaninate] | 100 to 500 nM | < 100 nM | 
CC[C@@H]1C(=O)N(C)c2cnc(Nc3ccc(/C=C/C[C@H](N)C(=O)OC4CCCC4)cc3)nc2N1C1CCCC1 [Example 2] | < 100 nM | < 100 nM | 
CC[C@@H]1C(=O)N(C)c2cnc(Nc3ccc(C(=O)NC4CCN(CC[C@H](N)C(=O)O[C@@H]5C[C@H](C)CC[C@H]5C(C)C)CC4)cc3OC)nc2N1C1CCCC1 [Example 32] |  | < 100 nM | 
CC[C@@H]1C(=O)N(C)c2cnc(Nc3ccc(C(=O)Nc4ccc(C[C@H](N)C(=O)O)cc4)cc3OC)nc2N1C1CCCC1 [Example 33] |  | < 100 nM | 
CC[C@@H]1C(=O)N(C)c2cnc(Nc3ccc(C[C@H](N)C(=O)O)cc3)nc2N1C1CCCC1 [Example 34, 4-{[(7R)-8-Cyclopentyl-7-ethyl-5-methyl-6-oxo-5,6,7,8-tetrahydropteridin-2-yl]amino}-L-phenylalanine] |  | < 100 nM | 
CC[C@@H]1C(=O)N(C)c2cnc(Nc3ccc(/C=C/C[C@H](N)C(=O)O)cc3)nc2N1C1CCCC1 [Example 35, (2S,4E)-2-Amino-5-(4-{[(7R)-8-cyclopentyl-7-ethyl-5-methyl-6-oxo-5,6,7,8-tetrahydropteridin-2-yl]amino}phenyl)pent-4-enoic acid] |  | < 100 nM | 
CC[C@@H]1C(=O)N(C)c2cnc(Nc3ccc(OCC[C@H](N)C(=O)O)cc3)nc2N1C1CCCC1 [Example 36, O-(4-{[(7R)-8-Cyclopentyl-7-ethyl-5-methyl-6-oxo-5,6,7,8-tetrahydropteridin-2-yl]amino}phenyl)-L-homoserine] |  | < 100 nM | 
CC[C@@H]1C(=O)N(C)c2cnc(Nc3ccc(OCC[C@H](N)C(=O)O)cc3OC)nc2N1C1CCCC1 [Example 37, O-(4-{[(7R)-8-Cyclopentyl-7-ethyl-5-methyl-6-oxo-5,6,7,8-tetrahydropteridin-2-yl]amino}-3-methoxyphenyl)-L-homoserine] |  | < 100 nM | 
CCC1C(=O)N(C)c2cnc(Nc3ccc(C(=O)NCCC(N)C(=O)O)cc3OC)nc2N1C1CCCC1 [Example 38, (2S)-2-Amino-4-[(4-{[(7R)-8-cyclopentyl-7-ethyl-5-methyl-6-oxo-5,6,7,8-tetrahydropteridin-2-yl]amino}-3-methoxybenzoyl)amino]butananoic acid] |  | < 100 nM | 
CC[C@@H]1C(=O)N(C)c2cnc(Nc3ccc(C(=O)N[C@@H]4CN[C@H](C(=O)O)C4)cc3OC)nc2N1C1CCCC1 [Example 39, (4S)-4-[(4-{[(7R)-8-Cyclopentyl-7-ethyl-5-methyl-6-oxo-5,6,7,8-tetrahydropteridin-2-yl]amino}-3-methoxybenzoyl)amino]-L-proline] |  | < 100 nM | 
CC[C@@H]1C(=O)N(C)c2cnc(Nc3ccc(C(=O)NCCCC[C@H](N)C(=O)O)cc3OC)nc2N1C1CCCC1 [Example 40, N^6-(4-{[(7R)-8-cyclopentyl-7-ethyl-5-methyl-6-oxo-5,6,7,8-tetrahydropteridin-2-yl]amino}-3-methoxybenzoyl)lysine] |  | < 100 nM | 
CC[C@@H]1C(=O)N(C)c2cnc(Nc3ccc(C(=O)NCc4ccc(OCC[C@H](N)C(=O)O)cc4)cc3OC)nc2N1C1CCCC1 [Example 41, O-(4-{[(4-{[(7R)-8-Cyclopentyl-7-ethyl-5-methyl-6-oxo-5,6,7,8-tetrahydropteridin-2-yl]amino}-3-methoxybenzoyl)amino]methyl}phenyl)-L-homoserine] |  | < 100 nM | 

Further lines, results first:

IC50 (HCT 116 cell line) | IC50 (PLK1; [1]) | IC50 (PLK1; acid of the ester, read-out: Inhibition of PLK (IC50, nM) acid) | SMILES
 | < 100 nM |  | CC[C@@H]1C(=O)N(C)c2cnc(Nc3ccc(C(=O)N4CCNC(C(=O)O)C4)cc3OC)nc2N1C1CCCC1 (stereo partly drawn) [Example 42, 4-(4-{[(7R)-8-Cyclopentyl-7-ethyl-5-methyl-6-oxo-5,6,7,8-tetrahydropteridin-2-yl]amino}-3-methoxybenzoyl)piperazine-2-carboxylic acid]
 | < 100 nM |  | CC[C@@H]1C(=O)N(C)c2cnc(Nc3ccc(C(=O)NCCN4CCNC(C(=O)O)C4)cc3OC)nc2N1C1CCCC1 (stereo partly drawn) [Example 43, 4-{2-[(4-{[(7R)-8-Cyclopentyl-7-ethyl-5-methyl-6-oxo-5,6,7,8-tetrahydropteridin-2-yl]amino}-3-methoxybenzoyl)amino]ethyl}piperazine-2-carboxylic acid]
 | < 100 nM |  | CC[C@@H]1C(=O)N(C)c2cnc(Nc3ccc(C(=O)NC4CCN(CC[C@H](N)C(=O)O)C4)cc3OC)nc2N1C1CCCC1 (stereo partly drawn) [Example 44, (2S)-2-amino-4-{3-[(4-{[(7R)-8-Cyclopentyl-7-ethyl-5-methyl-6-oxo-5,6,7,8-tetrahydropteridin-2-yl]amino}-3-methoxybenzoyl)amino]pyrrolidin-1-yl}butanoic acid]
 | < 100 nM |  | CC[C@@H]1C(=O)N(C)c2cnc(Nc3ccc(C(=O)NC4C5CN(CC[C@H](N)C(=O)O)CC54)cc3OC)nc2N1C1CCCC1 (stereo partly drawn) [Example 45, (2S)-2-Amino-4-{6-[(4-{[(7R)-8-cyclopentyl-7-ethyl-5-methyl-6-oxo-5,6,7,8-tetrahydropteridin-2-yl]amino}-3-methoxybenzoyl)amino]-3-azabicyclo[3.1.0]hex-3-yl} butanoic acid]
 | < 100 nM |  | CC[C@@H]1C(=O)N(C)c2cnc(Nc3ccc(C(=O)NC4CCN(CCC[C@H](N)C(=O)O)CC4)cc3OC)nc2N1C1CCCC1 [Example 46, 5-{4-[(4-{[(7R)-8-Cyclopentyl-7-ethyl-5-methyl-6-oxo-5,6,7,8-tetrahydropteridin-2-yl]amino}-3-methoxybenzoyl)amino]piperidin-1-yl}-L-norvaline]
 | < 100 nM |  | CC[C@@H]1C(=O)N(C)c2cnc(Nc3ccc(C(=O)NC4CCN(CCC[C@@H](N)C(=O)O)CC4)cc3OC)nc2N1C1CCCC1 [Example 47, 5-{4-[(4-{[(7R)-8-Cyclopentyl-7-ethyl-5-methyl-6-oxo-5,6,7,8-tetrahydropteridin-2-yl]amino}-3-methoxybenzoyl)amino]piperidin-1-yl}-D-norvaline]
 | < 100 nM |  | CC[C@@H]1C(=O)N(C)c2cnc(Nc3ccc(C(=O)NC4CCN(CC[C@H](N)C(=O)O)CC4)cc3C)nc2N1C1CCCC1 [Example 48, (2S)-2-Amino-4-{4-[(4-{[(7R)-8-cyclopentyl-7-ethyl-5-methyl-6-oxo-5,6,7,8-tetra hydropteridin-2-yl]amino}-3-methylbenzoyl)amino]piperidin-1-yl}butanoic acid]
 | < 100 nM |  | CC[C@@H]1C(=O)N(C)c2cnc(Nc3ccc(C(=O)NC4CCN(CC[C@H](N)C(=O)O)CC4)cc3F)nc2N1C1CCCC1 [Example 49, (2S)-2-Amino-4-{4-[(4-{[(7R)-8-cyclopentyl-7-ethyl-5-methyl-6-oxo-5,6,7,8-tetra hydropteridin-2-yl]amino}-3-fluorobenzoyl)amino]piperidin-1-yl}butanoic acid]
 | < 100 nM |  | CC[C@@H]1C(=O)N(C)c2cnc(Nc3ccc(C(=O)NC4CCN(CC[C@@H](N)C(=O)O)CC4)cc3OC)nc2N1C1CCCC1 [Example 50, (2R)-2-Amino-4-{4-[(4-{[(7R)-8-cyclopentyl-7-ethyl-5-methyl-6-oxo-5,6,7,8-tetra hydropteridin-2-yl]amino}-3-methoxybenzoyl)amino]piperidin-1-yl}butanoic acid]
 | < 100 nM |  | CC[C@@H]1C(=O)N(C)c2cnc(Nc3ccc(C(=O)N4CCNC(C(=O)O)C4)cc3OC)nc2N1C1CCCC1 (stereo partly drawn) [Example 52, 4-(4-{[(7R)-8-cyclopentyl-7-ethyl-5-methyl-6-oxo-5,6,7,8-tetrahydropteridin-2-yl]amino}-3-methoxbenzoyl)piperazine-2-carboxylic acid]
 | < 100 nM | 6 nM | CC[C@@H]1C(=O)N(C)c2cnc(Nc3ccc(C(=O)NC4CCN(CC[C@H](N)C(=O)O)CC4)cc3OC)nc2N1C1CCCC1 [Example 53, (2S)-2-amino-4-{4-[(4-{[(7R)-8-cyclopentyl-7-ethyl-5-methyl-6-oxo-5,6,7,8-tetrahydropteridin-2-yl]amino}-3-methoxybenzoyl)amino]piperidin-1-yl}butanoic acid]

Reference: US20100216802A1, “PTERIDINE DERIVATIVES AS POLO-LIKE KINASE INHIBITORS USEFUL IN THE TREATMENT OF CANCER” (CHROMA THERAPEUTICS LTD., priority 2006, published 2010)
